The values below come from publication doi:10.1101/2024.10.17.618876v1 (biorxiv, 2024).

Molecules are shown by their SMILES.

This test addresses T1, human lysozyme (HL) (Homo sapiens, UniProt P61626).
T1 sequence (P61626 19-148): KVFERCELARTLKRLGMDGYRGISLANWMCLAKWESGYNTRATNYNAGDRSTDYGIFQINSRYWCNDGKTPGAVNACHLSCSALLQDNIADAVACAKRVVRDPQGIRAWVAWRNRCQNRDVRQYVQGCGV
Kind of test: isothermal titration calorimetry. The test is classed as binding. On the technique in general: In ITC the heat of successive injections is recorded.

With `N=C(N)c1ccccc1` [benzamidine], binding was characterised by a dissociation constant (Kd) of 1550 nM.
